What follows are compounds tested against T1, human GluN1/GluN2B NMDA receptors (Homo sapiens, UniProt Q13224) (assay: Cell-based calcium flux (FLIPR) assay on cloned human NR1/NR2B ion channels expressed in mammalian cells (standard and HTS buffer variants)). Conditions: standard assay buffer (0.5 mM MgCl2 dye loading; 137 mM NaCl, 4 mM KCl assay buffer), human GluN1/GluN2B cells, read-out: NR2B IC50 (μM) standard assay.
T1 construct: expressed in transfected cells
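Further: stable Tet-On inducible cell line, Ca2+ influx triggered by glutamate at about EC40 plus 10 µM glycine, fluorescent dye read-out over 5 min, normalized to control wells.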

T1 sequence (Q13224 27-1484, other chains not shown): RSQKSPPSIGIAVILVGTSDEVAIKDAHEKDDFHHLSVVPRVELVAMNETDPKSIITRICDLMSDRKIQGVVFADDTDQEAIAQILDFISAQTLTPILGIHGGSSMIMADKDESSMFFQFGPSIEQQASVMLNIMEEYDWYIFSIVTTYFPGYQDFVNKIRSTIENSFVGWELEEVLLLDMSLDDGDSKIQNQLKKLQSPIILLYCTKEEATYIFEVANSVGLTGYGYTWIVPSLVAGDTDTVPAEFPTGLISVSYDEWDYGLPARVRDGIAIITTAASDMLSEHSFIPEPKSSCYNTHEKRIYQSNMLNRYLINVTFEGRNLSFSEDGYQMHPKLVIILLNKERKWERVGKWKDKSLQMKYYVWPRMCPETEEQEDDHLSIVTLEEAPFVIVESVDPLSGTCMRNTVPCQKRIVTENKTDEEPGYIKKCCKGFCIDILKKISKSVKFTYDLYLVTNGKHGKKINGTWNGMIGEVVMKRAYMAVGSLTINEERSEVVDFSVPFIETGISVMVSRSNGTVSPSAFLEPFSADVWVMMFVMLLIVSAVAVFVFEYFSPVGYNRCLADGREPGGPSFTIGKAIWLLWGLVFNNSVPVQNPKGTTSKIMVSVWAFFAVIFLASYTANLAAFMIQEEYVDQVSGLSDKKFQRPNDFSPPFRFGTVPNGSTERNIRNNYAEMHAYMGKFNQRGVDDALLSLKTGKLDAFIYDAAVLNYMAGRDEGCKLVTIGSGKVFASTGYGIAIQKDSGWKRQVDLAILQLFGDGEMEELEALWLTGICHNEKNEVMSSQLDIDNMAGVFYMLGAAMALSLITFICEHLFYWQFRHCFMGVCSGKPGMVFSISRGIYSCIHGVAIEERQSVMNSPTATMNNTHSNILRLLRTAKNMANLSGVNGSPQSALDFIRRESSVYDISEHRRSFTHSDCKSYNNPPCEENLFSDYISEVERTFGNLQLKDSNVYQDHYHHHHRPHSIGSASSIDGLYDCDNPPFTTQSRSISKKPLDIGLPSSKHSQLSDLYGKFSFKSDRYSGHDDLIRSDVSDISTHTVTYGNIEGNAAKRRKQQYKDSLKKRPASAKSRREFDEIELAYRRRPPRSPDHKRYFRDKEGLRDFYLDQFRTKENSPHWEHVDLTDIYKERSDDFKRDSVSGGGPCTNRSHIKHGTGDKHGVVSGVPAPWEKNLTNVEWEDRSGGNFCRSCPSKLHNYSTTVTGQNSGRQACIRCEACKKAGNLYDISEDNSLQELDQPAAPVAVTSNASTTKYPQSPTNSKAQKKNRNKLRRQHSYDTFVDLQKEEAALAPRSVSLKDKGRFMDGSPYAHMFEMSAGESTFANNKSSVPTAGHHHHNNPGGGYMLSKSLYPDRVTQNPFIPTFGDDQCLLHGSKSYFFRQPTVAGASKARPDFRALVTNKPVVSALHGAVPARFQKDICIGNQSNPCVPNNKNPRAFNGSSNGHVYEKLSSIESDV

IC50 | SMILES
0.034 µM | Cc1cncc(Cn2c(=O)[nH]c3ncc(-c4ccc(F)c(F)c4)cc32)c1 [Example 272, 6-(3,4-Difluorophenyl)-1-[(5-methyl-3-pyridyl)methyl]-3H-imidazo[4,5-b]pyridin-2-one]
0.096 µM | Cc1cncc(Cn2c(=O)[nH]c3ncc(-c4cccc(Cl)c4)cc32)c1 [Example 273, 6-(3-Chlorophenyl)-1-[(5-methyl-3-pyridyl)methyl]-3H-imidazo[4,5-b]pyridin-2-one]
0.057 µM | Cc1cncc(Cn2c(=O)[nH]c3ncc(-c4cccc(F)c4)cc32)c1 [Example 274, 6-(3-Fluorophenyl)-1-[(5-methyl-3-pyridyl)methyl]-3H-imidazo[4,5-b]pyridin-2-one]
0.009 µM | Cc1ccncc1Cn1c(=O)[nH]c2ncc(-c3ccc(F)c(F)c3)cc21 [Example 275, 6-(3,4-Difluorophenyl)-1-[(4-methyl-3-pyridyl)methyl]-3H-imidazo[4,5-b]pyridin-2-one]
0.034 µM | Cc1ccncc1Cn1c(=O)[nH]c2ncc(-c3cccc(F)c3)cc21 [Example 276, 6-(3-Fluorophenyl)-1-[(4-methyl-3-pyridyl)methyl]-3H-imidazo[4,5-b]pyridin-2-one]
0.077 µM | Cc1cc(-c2cnc3[nH]c(=O)n(Cc4cnccc4C)c3c2)ccc1F [Example 277, 6-(4-Fluoro-3-methyl-phenyl)-1-[(4-methyl-3-pyridyl)methyl]-3H-imidazo[4,5-b]pyridin-2-one]
0.111 µM | Cc1ccncc1Cn1c(=O)[nH]c2ncc(-c3ccc(F)c(C)c3F)cc21 [Example 278, 6-(2,4-Difluoro-3-methyl-phenyl)-1-[(4-methyl-3-pyridyl)methyl]-3H-imidazo[4,5-b]pyridin-2-one]
5.03 µM | O=c1[nH]c2ncc(-c3ccc(F)c(F)c3)cc2n1Cc1ccccn1 [Example 279, 6-(3,4-Difluorophenyl)-1-(2-pyridylmethyl)-3H-imidazo[4,5-b]pyridin-2-one]
0.576 µM | Cc1c(F)ccc(-c2cnc3[nH]c(=O)n(Cc4ccccn4)c3c2)c1F [Example 280, 6-(2,4-Difluoro-3-methyl-phenyl)-1-(2-pyridylmethyl)-3H-imidazo[4,5-b]pyridin-2-one]
0.932 µM | O=c1[nH]c2ncc(-c3cccc(F)c3)cc2n1Cc1ccccn1 [Example 281, 6-(3-Fluorophenyl)-1-(2-pyridylmethyl)-3H-imidazo[4,5-b]pyridin-2-one]
2.61 µM | O=c1[nH]c2ncc(-c3cccc(Cl)c3)cc2n1Cc1ccccn1 [Example 282, 6-(3-Chlorophenyl)-1-(2-pyridylmethyl)-3H-imidazo[4,5-b]pyridin-2-one]
0.079 µM | Cc1cc(-c2cnc3[nH]c(=O)n(Cc4ccccn4)c3c2)ccc1F [Example 283, 6-(4-Fluoro-3-methyl-phenyl)-1-(2-pyridylmethyl)-3H-imidazo[4,5-b]pyridin-2-one]
> 10 µM | Cc1cccnc1Cn1c(=O)[nH]c2ncc(-c3ccc(F)c(F)c3)cc21 [Example 284, 6-(3,4-Difluorophenyl)-1-[(3-methyl-2-pyridyl)methyl]-3H-imidazo[4,5-b]pyridin-2-one]
> 10 µM | Cc1cccnc1Cn1c(=O)[nH]c2ncc(-c3cccc(F)c3)cc21 [Example 285, 6-(3-Fluorophenyl)-1-[(3-methyl-2-pyridyl)methyl]-3H-imidazo[4,5-b]pyridin-2-one]
1.98 µM | O=c1[nH]c2ncc(-c3ccc(F)cc3)cc2n1Cc1ccccn1 [Example 286, 6-(4-Fluorophenyl)-1-(2-pyridylmethyl)-3H-imidazo[4,5-b]pyridin-2-one]
0.107 µM | O=c1[nH]c2ncc(-c3cccc(C(F)F)c3)cc2n1Cc1ccccn1 [Example 287, 6-[3-(Difluoromethyl)phenyl]-1-(2-pyridylmethyl)-3H-imidazo[4,5-b]pyridin-2-one]
4.05 µM | COc1cccc(-c2cnc3[nH]c(=O)n(Cc4ccccn4)c3c2)c1 [Example 288, 6-(3-Methoxyphenyl)-1-(2-pyridylmethyl)-3H-imidazo[4,5-b]pyridin-2-one]
7.08 µM | Cc1ccc(-c2cnc3[nH]c(=O)n(Cc4ccccn4)c3c2)cc1 [Example 289, 6-(p-Tolyl)-1-(2-pyridylmethyl)-3H-imidazo[4,5-b]pyridin-2-one]
0.065 µM | O=c1[nH]c2ncc(-c3cccc(F)c3)cc2n1Cc1cccnc1 [Example 290, 6-(3-fluorophenyl)-1-(3-pyridylmethyl)-3H-imidazo[4,5-b]pyridin-2-one]
0.022 µM | O=c1[nH]c2ncc(-c3cccc(C(F)F)c3)cc2n1Cc1cccnc1 [Example 291, 6-[3-(Difluoromethyl)phenyl]-1-(3-pyridylmethyl)-3H-imidazo[4,5-b]pyridin-2-one]
0.06 µM | O=c1[nH]c2ncc(-c3ccc(F)c(F)c3)cc2n1Cc1cccnc1 [Example 292, 6-(3,4-Difluorophenyl)-1-(3-pyridylmethyl)-3H-imidazo[4,5-b]pyridin-2-one]

IC50 | SMILES
0.017 µM | Cc1c(F)ccc(-c2cnc3[nH]c(=O)n(Cc4cccnc4)c3c2)c1F [Example 293, 6-(2,4-Difluoro-3-methyl-phenyl)-1-(3-pyridylmethyl)-3H-imidazo[4,5-b]pyridin-2-one]
0.023 µM | Cc1cc(-c2cnc3[nH]c(=O)n(Cc4cccnc4)c3c2)ccc1F [Example 294, 6-(4-Fluoro-3-methyl-phenyl)-1-(3-pyridylmethyl)-3H-imidazo[4,5-b]pyridin-2-one]
0.098 µM | O=c1[nH]c2ncc(-c3ccc(F)cc3)cc2n1Cc1cccnc1 [Example 295, 6-(4-Fluorophenyl)-1-(3-pyridylmethyl)-3H-imidazo[4,5-b]pyridin-2-one]
0.029 µM | O=c1[nH]c2ncc(-c3cccc(Cl)c3)cc2n1Cc1cccnc1 [Example 296, 6-(3-Chlorophenyl)-1-(3-pyridylmethyl)-3H-imidazo[4,5-b]pyridin-2-one]
0.027 µM | Cc1cccc(-c2cnc3[nH]c(=O)n(Cc4cccnc4)c3c2)c1 [Example 297, 6-(m-Tolyl)-1-(3-pyridylmethyl)-3H-imidazo[4,5-b]pyridin-2-one]
0.032 µM | O=c1[nH]c2ncc(-c3ccc(F)c(F)c3)cc2n1Cc1cncc(F)c1 [Example 298, 6-(3,4-Difluorophenyl)-1-[(5-fluoro-3-pyridyl)methyl]-3H-imidazo[4,5-b]pyridin-2-one]
0.019 µM | Cc1cc(-c2cnc3[nH]c(=O)n(Cc4cncc(F)c4)c3c2)ccc1F [Example 299, 6-(4-Fluoro-3-methyl-phenyl)-1-[(5-fluoro-3-pyridyl)methyl]-3H-imidazo[4,5-b]pyridin-2-one]
0.03 µM | O=c1[nH]c2ncc(-c3cccc(OC(F)F)c3)cc2n1Cc1cccnc1 [Example 300, 6-[3-(Difluoromethoxy)phenyl]-1-(3-pyridylmethyl)-3H-imidazo[4,5-b]pyridin-2-one]
0.045 µM | Cc1c(F)ccc(-c2cnc3[nH]c(=O)n(Cc4cncc(F)c4)c3c2)c1F [Example 301, 6-(2,4-Difluoro-3-methyl-phenyl)-1-[(5-fluoro-3-pyridyl)methyl]-3H-imidazo[4,5-b]pyridin-2-one]
0.022 µM | O=c1[nH]c2ncc(-c3cccc(C(F)F)c3)cc2n1Cc1cncc(F)c1 [Example 302, 6-[3-(Difluoromethyl)phenyl]-1-[(5-fluoro-3-pyridyl)methyl]-3H-imidazo[4,5-b]pyridin-2-one]
0.03 µM | O=c1[nH]c2ncc(-c3cccc(F)c3F)cc2n1Cc1cncc(F)c1 [Example 303, 6-(2,3-Difluorophenyl)-1-[(5-fluoro-3-pyridyl)methyl]-3H-imidazo[4,5-b]pyridin-2-one]
0.021 µM | O=c1[nH]c2ncc(-c3cccc(OC(F)F)c3)cc2n1Cc1cncc(F)c1 [Example 304, 6-[3-(Difluoromethoxy)phenyl]-1-[(5-fluoro-3-pyridyl)methyl]-3H-imidazo[4,5-b]pyridin-2-one]
0.013 µM | O=c1[nH]c2ncc(-c3cccc(Cl)c3)cc2n1Cc1cncc(F)c1 [Example 305, 6-(3-Chlorophenyl)-1-[(5-fluoro-3-pyridyl)methyl]-3H-imidazo[4,5-b]pyridin-2-one]
0.086 µM | Cc1cc(-c2cnc3[nH]c(=O)n(Cc4cncc(F)c4)c3c2)ccc1Cl [Example 306, 6-(4-Chloro-3-methyl-phenyl)-1-[(5-fluoro-3-pyridyl)methyl]-3H-imidazo[4,5-b]pyridin-2-one]
0.088 µM | O=c1[nH]c2ncc(-c3cccc(OC(F)(F)F)c3)cc2n1Cc1cncc(F)c1 [Example 307, 1-[(5-Fluoro-3-pyridyl)methyl]-6-[3-(trifluoromethoxy)phenyl]-3H-imidazo[4,5-b]pyridin-2-one]
0.03 µM | Cc1cncc(Cn2c(=O)[nH]c3ncc(-c4cc(F)c(F)c(F)c4)cc32)c1 [Example 308, 1-[(5-Methyl-3-pyridyl)methyl]-6-(3,4,5-trifluorophenyl)-3H-imidazo[4,5-b]pyridin-2-one]
0.316 µM | Cc1cncc(Cn2c(=O)[nH]c3ncc(-c4ccc(F)c(C(F)(F)F)c4)cc32)c1 [Example 309, 6-[4-Fluoro-3-(trifluoromethyl)phenyl]-1-[(5-methyl-3-pyridyl)methyl]-3H-imidazo[4,5-b]pyridin-2-one]
0.088 µM | Cc1cncc(Cn2c(=O)[nH]c3ncc(-c4cccc(F)c4F)cc32)c1 [Example 310, 6-(2,3-Difluorophenyl)-1-[(5-methyl-3-pyridyl)methyl]-3H-imidazo[4,5-b]pyridin-2-one]
0.028 µM | Cc1cncc(Cn2c(=O)[nH]c3ncc(-c4cc(F)cc(F)c4)cc32)c1 [Example 311, 6-(3,5-Difluorophenyl)-1-[(5-methyl-3-pyridyl)methyl]-3H-imidazo[4,5-b]pyridin-2-one]
0.002 µM | Cc1ccncc1Cn1c(=O)[nH]c2ncc(-c3cc(F)c(F)c(F)c3)cc21 [Example 312, 1-[(4-Methyl-3-pyridyl)methyl]-6-(3,4,5-trifluorophenyl)-3H-imidazo[4,5-b]pyridin-2-one]
0.018 µM | Cc1ccncc1Cn1c(=O)[nH]c2ncc(-c3cccc(C(F)(F)F)c3)cc21 [Example 313, 1-[(4-Methyl-3-pyridyl)methyl]-6-[3-b]pyridin-2-one]

Reference: patent US11759455B2, “Substituted 1H-imidazo[4,5-b]pyridin-2(3H)-ones and their use as GLUN2B receptor modulators” (JANSSEN PHARMACEUTICA NV, priority 2016, dated 2023)
